# Values joined by “and” are separate entries in the source; they are usually repeats but may differ in a detail not shown here. Identical values can stand only once.
# Legend:
# C57BL/6j mice = assay: Investigation of sedation side effects (autonomic activity, movement distance); assay type: in vivo; settings: sedation ED50 / PDP efficacy ED50
# Description: (§1) 1.3 Investigation of Sedation Side Effects (Anti-Sedation Model)
# (§2) According to different doses of each group, solutions at different concentrations were separately formulated for intraperitoneal injection, with the final administration volume of 10 mL/kg.
# (§3) The movement at 0-20 min was recorded on video, and the movement distance in 20 min was analyzed by Top Scan 3.00 software. The inhibition rate of each group relative to the blank group after the administration were calculated, and the sedation effects of the compounds were comprehensively evaluated in combination with a statistical conclusion.
# [1] = as above; assay type: in vivo, mice; settings: mouse, in vivo, ip; C57BL/6j mice, intraperitoneal, 45 min after administration
# Description: as §1, §2, §3
# [2] = test system: MPTP+APO-induced climbing behavior in male mice; assay: MPTP+APO-induced climbing behavior in male mice (DA motor deterioration model); assay type: in vivo
# Description: (§4) 1.2 Effect on MPTP+APO-induced climbing behavior in male mice (DA motor deterioration model) Animals were injected with different doses of MPTP intraperitoneally every morning for 5 consecutive days. […] After the subcutaneous injection, animals were immediately placed into a climbing cage (self-made, a cylindrical cage with the diameter of 13 cm and the height of 15 cm, made of a stainless steel wire mesh with the diameter of about 0.1 cm, the bottom of which is a semitransparent polyethylene plate, and the cage cover of which is a stainless steel cage cover), and the behaviors of animals at minutes 10-11, 20-21 and 30-31 after the APO injection was observed and scored.
# (§5) Scoring criteria: four feet on the floor scored 0; two forepaws on the cage scored 1; and four feet on the cage scored 2.
# [3] = test system: MPTP+MK-801-induced Parkinson's disease mouse model; assay: MPTP+MK-801-induced Parkinson's disease mouse model (anti-PDP efficacy model); assay type: in vivo; settings: ip, mice, intraperitoneal, read-out: PDP efficacy (high activity) ED50
# Description: 1.1 Effect on MPTP+MK-801-induced Parkinson's disease mouse model (anti-PDP efficacy model)
# Animals were injected with different doses of MPTP(1-methyl-4-phenyl-1,2,3,6-tetrahydropyridine) intraperitoneally every morning for 5 consecutive days. […] Then, after an interval of 0.25 h, the mice were placed into an autonomous activity test box (a black polyethylene box with the specification of 29 cm×29 cm×30 cm) for video recording for 20 min. Video analysis was performed after the video recording to evaluate the activity of the mice.
# hERG potassium channel = hERG potassium channel (Homo sapiens (Human), UniProt Q12809); assay: In vitro hERG assay, whole-cell patch clamp in HEK-293 cells; assay type: cell-based; settings: HEK-293 cells stably expressing hERG, room temperature
# Description: b. […] The working solutions of the test compounds were ultrasonically treated for 20 min.
# The cell suspension was gently pipetted to separate the aggregated cells.
# Under an inverted microscope, recording electrodes were controlled by a glass electrode micromanipulator (micromanipulation) to contact with the cell. […] After forming the GΩ seal, a rapid capacitance compensation was given.
# Negative control and test compounds flowed through the recording chamber in an ascending order of concentration by gravity perfusion to quickly act on the cells. During the recording, the extracellular fluid was continuously circulated by a vacuum pump. […] Each concentration was allowed to act for 5 min or until the current was stabilized. All experiments were performed at room temperature.
# [formula] Basic statistics were calculated for each concentration, including mean, standard deviation (SD), standard error (SE), and replicates (n). The dose-dependent curve was fitted with the following equation and the half maximal inhibitory concentration (IC50) of the test compounds was calculated:
# Curve fitting and calculation of IC50 were performed by GraphPad Prism 5.0 software. 5. Experimental Results
# 5-HT2C receptor = 5-HT2C receptor (Rattus norvegicus (Rat), UniProt P08909); settings: read-out: 5-HT2C (Ki value); rat cortex membrane, 3H-Mesulergine
# Description: 2) Preparation of 5-HT2C Membrane
# The rat cortex was taken out of a refrigerator at −80° C. and thawed spontaneously. The solution A was added, and the mixture was homogenized for 3-4 s at 4th gear for a total of 4 times and centrifuged at 50000 g for 25 min at 4° C. The supernatant was discarded, and the solution A was added into the precipitate. The mixture was mixed well using a vortex mixer and centrifuged at 50000 g for 25 min at 4° C. (repeated twice). The supernatant was discarded after the centrifugation, and the precipitate was stored at −80° C. for later use.
# 2) Competitive 5-HT2C Receptor Binding Assay
# Step 1: the prepared membrane was suspended in the homogenate B to obtain a 210 mg/mL membrane suspension for later use.
# Step 2: 100 μL of the membrane suspension was added into each reaction tube.
# Step 3: 100 μL of the solution B was added into a total binding tube (TB), 100 μL of Ketanserin (final concentration: 1.0×10^−5 M) was added into a non-specific binding tube (NB), and 100 μL of test compound was added into each compound binding tube (CB).
# Step 4: 10 μL of radioligand ^3H-Mesulergine was added into each reaction tube to reach a final concentration of 3 nM.
# Step 5: each reaction tube was incubated at 37° C. for 25 min. After the reaction was completed, the binding ligands were rapidly filtered under reduced pressure, wherein the Whatman test paper GF/C was washed with 0.5% PEI solution 1 h in advance. The filter membrane was fully washed with cold Tris buffer solution, taken out and put into a 4 mL scintillation disc, which was then added with 1 mL toluene scintillation solution and shaken for mixing well.
# Step 6: the scintillation disc was put into a liquid scintillation counter for counting.
# [4] = test system: DOI-induced head shaking behavior of mice; assay: DOI-induced head shaking (head thrust) test in mice; assay type: in vivo; settings: Mus musculus, intragastric, DOI 1 mg/kg i.p., 0-20 min, read-out: ED50 for inhibiting the DOI-induced head shaking behavior
# Description: 1. Head Thrust Test in Mice
# Mice were stratified according to body weight and then randomly divided into a model control group, a blank control group and drug administration groups. 1 h after the intragastric administration of a vehicle or a drug, the animals were placed in a beaker (with the diameter of 13 cm and the height of 19 cm) paved with fresh padding, and were injected with a modeling drug DOI ((±)-1-(2,5-dimethoxy-4-iodophenyl)-2-aminopropane hydrochloride or (±)-2,5-dimethoxy-4-iodoamphetamine hydrochloride) intraperitoneally at a dose of 1 mg/kg. The head shaking times of the mice during the 0-20 min after the intraperitoneal injection of DOI were recorded. The head shaking behavior is defined as a rapid rotational twitching or wet dog-like shaking of the mouse head, which is distinguished from normal grooming or exploring behavior.
# 5-HT2A receptor = 5-HT2A receptor (Homo sapiens (Human), UniProt P28223); assay: Competitive 5-HT2A receptor binding assay (3H-Ketanserin, CHO-5-HT2A membrane)
# Description: 1) Preparation of CHO-5-HT2A Receptor Membrane
# The precipitate was collected, and the supernatant was discarded. The solution B was added into the precipitate. […] The supernatant was carefully discarded, and the solution B was added into the precipitate again. […] The precipitate obtained was stored at −80° C.
# 1) Competitive 5-HT2A Receptor Binding Assay
# Step 2: 100 μL of the membrane preparation was added into each reaction tube.
# After the filtration, the filter membrane was dried at 60° C. and added into a scintillation disc attached with a bottom membrane, which was then added with 40 μL of scintillation liquid, sealed with a top membrane, and left to stand.
# 5-HT2B receptor = 5-HT2B receptor (Homo sapiens (Human), UniProt P41595); settings: background statement, no significant affinity; cited from earlier work
# adrenergic receptor = settings: background statement, no significant affinity; cited from earlier work
# muscarinic receptor = settings: background statement, no significant affinity; cited from earlier work
# [5] = MPTP+APO-induced climbing behavior in male mice (DA motor deterioration model); assay type: in vivo; settings: mouse, in vivo, ip; male mice, intraperitoneal; read-out: DA side effects (climbing motor deterioration) ED50
# Description: as §4, §5
# [6] = test system: MK-801-induced high activity behavior of mice; assay: Dizocilpine (MK-801)-induced high activity test in mice; assay type: in vivo; settings: Mus musculus, 1 h, intragastric, MK-801 0.3 mg/kg i.p., 60 min, read-out: ED50 for inhibiting the MK-801-induced high activity behavior
# Description: 2. Dizocilpine (MK-801)-Induced High Activity Test in Mice 2.1 Test Method
# Mice were stratified according to body weight and then randomly divided into a model control group, a blank control group and drug administration groups. After the administration of a test substance (or a control substance), the mice were placed into an autonomous activity test box (a black polyethylene box with the specification of 29 cm×29 cm×30 cm) for adaptation, and injected with MK-801 at 0.3 mg/kg intraperitoneally 1 h after the intragastric administration. The mice were then placed into the autonomous activity test box for video recording for 60 min. Video analysis was performed after the video recording to evaluate the activity of the mice.
# PPI in normal rats = PPI in normal rats (dosing test, normal saline instead of DOI); assay type: in vivo; settings: normal saline
# Description: (§6) The test was performed according to literature and preliminary experiments, and the specific process was as follows: first an adaptation period of 5 min was given (62 dB background sound), and 5 separate startle reflex stimuli were given after the adaptation period (blockl, results not included in the analysis to reduce the initial response of the animals to a plateau level), followed by 4 different types of tests (block2) presented in a pseudo-random manner, namely: 1) startle reflex stimulus alone (pulse-alone, 120 dB, lasting 20 ms); 2) prepulse stimulus alone 13 dB above the background sound (prepulse-alone, 75 dB, lasting 20 ms); 3) prepulse stimulus in combination with startle reflex stimulus, each lasting 20 ms, with an interval of 100 ms; and 4) no stimulus in which only the background sound was given (no stimulus). Each trial was performed 5 times, with an average interval of 20 s (10-30 s) between trials.
# (§7) The response amplitude of the startle reflex stimulus alone or the prepulse stimulus in combination with startle reflex stimulus was expressed as the AVG (instrument-specific unit) value, which indirectly reflects the size of the flinching response of the rat body. Evaluation index: PPI %=(1−response amplitude of prepulse stimulus in combination with startle reflex stimulus/response amplitude of startle reflex stimulus alone)×100. The higher the value is, the greater the degree of the inhibition is. Dosing Test:
# The DOI at 0.5 mg/kg administered to animals in the above groups was changed to normal saline (NS), and other operations including administration and testing were the same as those in the intervention test.
# [7] = test system: DOI-induced PPI impairment in rats; assay: DOI-induced PPI impairment test in rats (intervention test); assay type: in vivo; settings: DOI 0.5 mg/kg
# Description: 3. DOI ((f)-1-(2,5-dimethoxy-4-iodophenyl)-2-aminopropane hydrochloride or (f)-2,5-dimethoxy-4-iodoamphetamine hydrochloride) induced PPI impairment effect test in rats
# 30 min after the intragastric administration of a drug (or a vehicle) and 30 min after the subcutaneous injection of DOI at 0.5 mg/kg at the neck, namely 60 min after the intragastric administration, the rats were placed into a startle reflex test box for testing.
# as §6
# as §7, with “is.” for “is. Dosing Test:”
# calcium channel receptor = settings: background statement, no significant affinity; cited from earlier work
# 5-HT2A receptor, sequence (P28223 whole entry): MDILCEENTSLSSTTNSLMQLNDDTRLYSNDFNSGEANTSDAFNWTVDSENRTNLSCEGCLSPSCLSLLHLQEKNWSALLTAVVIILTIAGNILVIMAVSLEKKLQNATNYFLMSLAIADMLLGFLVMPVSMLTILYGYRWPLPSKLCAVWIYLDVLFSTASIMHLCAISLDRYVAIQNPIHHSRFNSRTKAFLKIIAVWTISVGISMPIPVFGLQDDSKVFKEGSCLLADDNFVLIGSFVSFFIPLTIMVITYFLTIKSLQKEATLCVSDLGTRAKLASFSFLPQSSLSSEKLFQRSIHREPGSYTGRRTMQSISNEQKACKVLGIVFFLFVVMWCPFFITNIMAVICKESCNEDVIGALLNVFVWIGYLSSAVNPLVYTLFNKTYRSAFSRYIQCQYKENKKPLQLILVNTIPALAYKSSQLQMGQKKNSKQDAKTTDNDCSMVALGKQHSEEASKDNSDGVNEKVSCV
# 5-HT2C receptor, sequence (P08909 33-460): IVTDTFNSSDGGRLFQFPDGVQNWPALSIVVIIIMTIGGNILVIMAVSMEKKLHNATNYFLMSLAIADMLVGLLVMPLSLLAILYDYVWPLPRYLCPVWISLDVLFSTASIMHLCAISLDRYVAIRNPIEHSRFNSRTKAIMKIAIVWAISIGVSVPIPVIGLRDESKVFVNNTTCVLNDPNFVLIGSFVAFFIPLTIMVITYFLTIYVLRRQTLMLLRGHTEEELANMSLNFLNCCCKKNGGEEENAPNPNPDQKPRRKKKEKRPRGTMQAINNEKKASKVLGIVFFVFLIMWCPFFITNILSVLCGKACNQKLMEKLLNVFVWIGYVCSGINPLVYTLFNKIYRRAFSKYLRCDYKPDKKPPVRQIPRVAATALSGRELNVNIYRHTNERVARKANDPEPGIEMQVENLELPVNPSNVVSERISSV
# hERG potassium channel, sequence (Q12809 whole entry): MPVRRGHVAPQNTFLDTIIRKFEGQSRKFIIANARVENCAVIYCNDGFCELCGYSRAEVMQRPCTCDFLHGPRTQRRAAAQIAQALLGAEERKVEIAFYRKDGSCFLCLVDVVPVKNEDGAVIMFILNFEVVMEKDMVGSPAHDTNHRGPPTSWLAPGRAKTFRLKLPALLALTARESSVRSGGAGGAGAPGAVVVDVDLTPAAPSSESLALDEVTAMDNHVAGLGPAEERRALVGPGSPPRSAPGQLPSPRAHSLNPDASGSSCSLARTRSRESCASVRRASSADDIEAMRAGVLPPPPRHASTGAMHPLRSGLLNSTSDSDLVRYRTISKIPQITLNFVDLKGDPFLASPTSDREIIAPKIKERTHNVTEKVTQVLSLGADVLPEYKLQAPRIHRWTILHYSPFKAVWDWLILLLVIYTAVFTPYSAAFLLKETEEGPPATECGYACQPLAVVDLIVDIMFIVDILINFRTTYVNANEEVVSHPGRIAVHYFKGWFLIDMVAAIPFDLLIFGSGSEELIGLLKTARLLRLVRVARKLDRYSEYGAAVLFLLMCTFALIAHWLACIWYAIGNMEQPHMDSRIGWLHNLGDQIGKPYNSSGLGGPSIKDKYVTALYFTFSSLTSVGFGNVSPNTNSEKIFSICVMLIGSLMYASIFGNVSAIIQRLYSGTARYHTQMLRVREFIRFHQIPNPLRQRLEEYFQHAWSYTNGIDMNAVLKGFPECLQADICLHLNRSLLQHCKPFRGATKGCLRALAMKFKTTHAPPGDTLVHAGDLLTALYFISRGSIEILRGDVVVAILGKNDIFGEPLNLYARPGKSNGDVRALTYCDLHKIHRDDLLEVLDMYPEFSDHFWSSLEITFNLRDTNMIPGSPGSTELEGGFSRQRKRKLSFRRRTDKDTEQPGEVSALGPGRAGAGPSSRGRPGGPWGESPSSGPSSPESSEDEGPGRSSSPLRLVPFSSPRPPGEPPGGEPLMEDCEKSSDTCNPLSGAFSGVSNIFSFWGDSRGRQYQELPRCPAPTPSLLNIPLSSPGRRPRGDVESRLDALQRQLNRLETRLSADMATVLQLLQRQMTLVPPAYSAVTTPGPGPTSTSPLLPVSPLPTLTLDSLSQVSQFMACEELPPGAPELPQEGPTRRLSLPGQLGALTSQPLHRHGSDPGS
# 5-HT2B receptor, sequence (P41595 whole entry): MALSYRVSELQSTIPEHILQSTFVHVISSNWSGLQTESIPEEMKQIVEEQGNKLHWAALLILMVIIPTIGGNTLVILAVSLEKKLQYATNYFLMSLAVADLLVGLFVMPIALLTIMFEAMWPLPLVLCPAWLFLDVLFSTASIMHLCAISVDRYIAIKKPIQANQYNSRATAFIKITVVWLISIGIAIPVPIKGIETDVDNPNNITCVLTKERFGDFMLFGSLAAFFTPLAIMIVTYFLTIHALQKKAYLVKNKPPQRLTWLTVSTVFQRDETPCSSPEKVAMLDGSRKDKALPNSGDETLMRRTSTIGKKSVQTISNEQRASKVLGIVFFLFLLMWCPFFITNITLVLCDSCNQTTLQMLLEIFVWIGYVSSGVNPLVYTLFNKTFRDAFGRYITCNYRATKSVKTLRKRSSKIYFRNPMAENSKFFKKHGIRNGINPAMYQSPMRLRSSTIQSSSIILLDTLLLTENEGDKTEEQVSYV
compound,measurement,setting,value
"CC(C)COc1ccc(CN2Cc3cc(F)ccc3CN(C3CCN(C)CC3)C2=O)cc1 [NH-K-A19001, 7-fluoro-2-(1-methylpiperidin-4-yl)-4-[[4-(2-methylpropoxy)phenyl]methyl]-1,5-dihydro-2,4-benzo diazepine-3-one]",Ratio of sedation ED50 to PDP efficacy ED50,C57BL/6j mice,11.33
same,ED50 at 45 min,[1],3.74 mg/kg
same,motor deterioration (DA mechanism of action),[2]; observation in words,no motor deterioration is observed
same,ED50,[3],0.33 mg/kg
same,IC50,hERG potassium channel,260 nM
same,Ki,5-HT2C receptor,2.4 nM
same,ED50,[4],0.06 mg/kg
same,Ki,"5-HT2A receptor; CHO-5-HT2A membrane, 3H-Ketanserin, read-out: 5-HT2A (Ki value)",0.028 nM
same,2C/2A,5-HT2A receptor; ratio of 5-HT2C Ki to 5-HT2A Ki,86.327
"CC(C)COc1ccc(CNC(=O)N(Cc2ccc(F)cc2)C2CCN(C)CC2)cc1 [Pimavanserin, reference compound]",Ki,5-HT2B receptor,> 300 nM
same,Ki,adrenergic receptor,> 300 nM
same,ED50 at 45 min,[1],6.79 mg/kg
same,Ki,muscarinic receptor,> 300 nM
same,DA side effects (climbing motor deterioration) ED50,"[2]; male mice, intraperitoneal",>30 mg/kg
same,ED50,[5],> 30 mg/kg
same,ED50,[6],3.29 mg/kg
same,ED50,[3],0.37 mg/kg
same,"PPI %, MEAN",PPI in normal rats; 1 mg/kg intragastric,63.11%
same,"PPI %, individual animal",PPI in normal rats; 1 mg/kg intragastric,14.80% and 45.96% and 67.95% and 61.11% and 92.15% and 83.93% and 70.62% and 68.32%
same,"PPI %, MEAN",PPI in normal rats; 3 mg/kg intragastric,60.54%
same,"PPI %, individual animal",PPI in normal rats; 3 mg/kg intragastric,76.95% and 37.54% and 42.51% and 64.49% and 42.29% and 71.78% and 84.89% and 63.88%
same,"PPI %, MEAN",PPI in normal rats; 10 mg/kg intragastric,57.00%
same,"PPI %, individual animal",PPI in normal rats; 10 mg/kg intragastric,83.19% and 80.13% and 44.91% and 82.49% and 52.16% and −32.12% and 72.74% and 72.49%
same,reversal of DOI-induced PPI impairment,"[7]; 3 mg/kg, P<0.05",significantly reverse
same,"PPI %, MEAN",[7]; 1 mg/kg intragastric,28.93%
same,"PPI %, individual animal",[7]; 1 mg/kg intragastric,30.19% and 7.34% and 12.78% and −9.80% and 36.56% and 57.19% and 55.33% and 41.86%
same,"PPI %, MEAN",[7]; 3 mg/kg intragastric,42.65%
same,"PPI %, individual animal",[7]; 3 mg/kg intragastric,25.79% and 45.06% and 35.48% and 4.10% and 30.23% and 62.54% and 62.41% and 75.59%
same,"PPI %, MEAN",[7]; 10 mg/kg intragastric,47.32%
same,"PPI %, individual animal",[7]; 10 mg/kg intragastric,69.36% and 54.29% and 71.90% and 24.73% and 32.57% and 37.52% and 33.19% and 55.00%
same,ED50,[4],0.39 mg/kg
same,Ki,calcium channel receptor,> 300 nM

# Source: US12559471B2, “1,5-dihydro-2,4-benzodiazepine-3-one derivative and application thereof” (JIANGSU NHWA PHARMACEUTICAL CO., LTD, priority 2020, dated 2026)
